Data set [1] in a line: Impact of dry heat sterilization on particle size of bulk roflumilast API. The class given is physicochemical. The following applies: bulk API dried at 137° C. for 20 hours. Here is the method: The impact of dry heat sterilization on roflumilast was assessed. Bulk API of roflumilast was dried at 137° C. for 20 hours. The particle size of the roflumilast was measured. FIG. 14 provides a particle size distribution plot for the bulk API after dry heat sterilization.

For data set [2] the following is noted: as reported from the API manufacturer; cited from earlier work.

We go through one compound from patent US20250255809A1, “OPHTHALMIC PHARMACEUTICAL COMPOSITIONS OF ROFLUMILAST” (Iolyx Therapeutics, Inc., priority 2021, published 2025).

Structures are written as SMILES.

`O=C(Nc1c(Cl)cncc1Cl)c1ccc(OC(F)F)c(OCC2CC2)c1` [Roflumilast, N-(3,5-dichloropyrid-4-yl)-3-cyclopropylmethoxy-4-difluoromethoxybenzamide]: in data set [1], the “impact of dry heat sterilization on particle size distribution” value was “does not significantly impact the particle size distribution”. Also, the “D90 of the API” value in data set [2] is “approximately 10 μm”.
